Key:
[1] = Glass formation of the DNP preparation upon rapid freezing in liquid nitrogen; format: physicochemical
Method: Butyric acid (11.7 mg, 0.13 mmol) was placed into an Eppendorf tube and mixed with 9.0 mg of a glycerol solution containing 39 mM of Radical 1. This preparation was 7 M with respect to butyric acid.
Butyric anhydride (40 μl, 0.24 mmol) was added to an Eppendorf tube and mixed with 1 mg of Radical 3 in a total concentration of 15 mM. This preparation was 6.5 M with respect to butyric anhydride (which, upon hydrolysis provides a 13 M concentration in butyric acid molecules).
Butyric acetic anhydride (36 μl, 0.28 mmol) was added to an Eppendorf tube and mixed with 0.85 mg of acid form of Radical 3 in a total concentration of 15 mM. This preparation was 7.5 M with respect to butyric acetic acid.
Li-acetoacetate (22.4 mg, 0.21 mmol) was added to an Eppendorf tube and mixed with 28 μl of a DMSO preparation (25 mM Radical 3 and 0.8 mM 3-Gd). This preparation was 4 M with respect to Li-acetoacetate.
To an Eppendorf tube was added diketene (9.6 mg, 0.11 mmol) and mixed with 4.7 mg of a DMSO preparation of Radical 3 (45 mM) and 3-Gd (1.5 mM). This preparation was 8.5 M with respect to diketene.
Ethyl acetoacetate (45 μl, 0.34 mmol) was added to an Eppendorf tube and mixed with acid form of Radical 2 (0.7 mg, 0.65 μmol) in a total concentration of 15 mM. This preparation was 8 M with respect to ethyl acetoacetate.
Cis-aconitic acid (18.6 mg, 0.11 mmol) was added to an Eppendorf tube and mixed with a 32.5 μl DMSO preparation (25 mM Radical 3 and 0.8 mM 3-Gd). This preparation was 2.5 M with respect to cis-aconitic acid.
Cis-aconitic anhydride (188 mg, 1.2 mmol) was added to an Eppendorf tube and mixed with 2.85 mg (2 μmol) of Radical 1 and 0.98 mg of a 83 μmol/g solution of 3-Gd. This preparation was 9 M with respect to cis-aconitic anhydride.
Succinic acid (42.1 mg, 0.35 mmol) was added to an Eppendorf tube and mixed and mixed with 92 mg of a DMSO preparation (20 mM Radical 3 and 0.8 mM 3-Gd). This preparation was 4 M with respect to succinic acid.
Succinic anhydride (21.5 mg, 0.21 mmol) was added to an Eppendorf tube and mixed with 21.8 mg of a DMSO solution of Radical 3 (30 mM) and of 3-Gd (1 mM). This preparation was 6 M with respect to succinic anhydride.
Succinic-(1)-ethyl ester (111 mg, 0.75 mmol) was added to an Eppendorf tube and mixed with the carboxylic acid form of Radical 2 (2.4 mg, 1.5 μmol) and 3-Gd (3.4 μl of a 14.5 mM solution in water). This preparation was 6 M with respect to succinic-(1)-ethyl ester.
(§1) L-Glutamine (50.9 mg, 0.35 mmol) was added to an Eppendorf tube and dissolved in 29 μl of 12 M NaOH and mixed with 1.7 mg of radical 1 and 3-Gd (2.3 μl of a 14.5 mM water stock solution). This preparation was 4 M with respect to L-glutamine.

[2] = T1 relaxation time in solution at 14.1 T; format: physicochemical; details: for High field liquid state T1: 14.1 T magnet, phosphate buffer, pH 7.1-7.2
Method: The ester was only partly hydrolyzed.
The T1 of the hydrolyzed product, succinate is 33 s (14.1 T and 37° C.).
The sample was dissolved in 5 ml phosphate buffer (100 mM, pH 7) with added one equivalent HCl. The pH is 7.1 after dissolution.
The pH is 7.2 after dissolution.

[3] = Degradation / isomerisation of the substrate in DNP preparation and dissolution (NMR)
Method: (§2) The entire composition from example 2a was transferred from the Eppendorf tube to a sample cup and the sample cup was inserted into a DNP polariser. The composition was hyperpolarised under DNP conditions at 1.2 K in a 3.35 T magnetic field under irradiation with microwave (93.915 GHz). The sample was hyperpolarized for 75 min.
The sample was dissolved in 5 ml phosphate buffer pH 7.3 (40 mM+EDTA).
The solution was collected directly into a 10 mm NMR tube and transferred to a 14.1 T magnet where a 90 degree 1D 13C-NMR spectrum was recorded.
(§3) The sample was dissolved in 5 ml water with added NaOH (125 μl of 12 M). The solution was collected directly into a 10 mm NMR tube and transferred to a 14.1 T magnet (pH 13) where a time series of 64 five degree 1D 13C-NMR spectra were recorded with a total delay between the pulses of 3 s.
(§4) The sample was dissolved in 5 ml water with added NaOH (200 μl of 12 M). The solution was collected directly into a 10 mm NMR tube and transferred to a 14.1 T magnet (pH 12.8) where a time series of 5 degree 1D 13C-NMR spectra were recorded with a total delay between the pulses of 3 s.
The sample was dissolved in 5 ml 40 mM phosphate buffer pH 7.3+100 mg/l EDTA, thus resulting in an ester concentration of 20 mM. 1 ml of the ester solution was injected through a transfer line into a 10 mm NMR tube placed at 14.1 T and 37° C. The 10 mm NMR tube contained a 500 μl solution of approximately 270 U of a carboxylic-ester hydrolase from porcine liver. A time series of 10 degree 1D 13C-NMR spectra were recorded with a total delay between the pulses of 3 s.
as §4, with “phosphate buffer (40 mM, pH 7.3)” for “water”, “30” for “NaOH (200”, “μl” for “μl of”, “M NaOH. […]” for “M).”, “magnet” for “magnet (pH 12.8)”
(§5) The sample was dissolved in 6 ml water with added NaOH (190 μl of 12 M). The solution was collected directly into a 10 mm NMR tube and transferred to a 14.1 T magnet (pH 12.8) where a time series of 64 five degree 1D 13C-NMR spectra were recorded with a total delay between the pulses of 3 s.
as §1
N-acetyl-L-glutamine (57.2 mg, 0.3 mmol) was added to an Eppendorf tube and dissolved in 25.3 μl of 12 M NaOH and mixed with 1.9 mg of radical 1 and 3-Gd (2.3 μl of a 14.5 mM water stock solution).

[4] = Hydrolysis of the DNP hyperpolarized precursor on dissolution with strong base, followed by 13C-NMR time series; format: physicochemical
Method: as §2, with “The” for “The entire”, “1b (25 mg, 0.16 mmol)” for “2a”
as §4, with “in 4” for “in 5”, “NaOH (50” for “NaOH (200”, “of 12M solution). The pH of the dissolved sample was 12.” for “of 12 M).”, “magnet” for “magnet (pH 12.8)”, “of 1” for “of 3”
as §2, with “The” for “The entire”, “is (33 mg, 0.25 mmol)” for “2a”, “90” for “75”
The sample was dissolved in 5 ml water with added NaOH (125 μl of 12M). The solution was collected directly into a 10 mm NMR tube and transferred to a 14.1 […]) T magnet where a time series of 5 degree 1D 13C-NMR spectra were recorded with a total delay between the pulses of 1 s.
as §2, with “2b” for “2a”, “3 hours.” for “75 min.”
as §3
as §2, with “The” for “The entire”, “is (20.5 mg, 0.16 mmol)” for “2a”, “2 hours.” for “75 min.”
as §4
as §2, with “The” for “The entire”, “2b was melted on a water-bath and stirred with a magnetic stirrer. 45 mg of this preparation (0.29 mmol)” for “2a”, “90” for “75”
as §5

[5] = dissolved in 12 M NaOH with radical 1
[6] = mixed with DMSO preparation of Radical 3
[7] = with trityl radical, without addition of glass-forming agents
[8] = after 10 s, water with added NaOH, pH 12-13
[9] = after 20 s, water with added NaOH, pH 12.9-13
[10] = after 15 s, strong base (NaOH or NaOD), pH 11-12.2

SMILES: [2H][13C]([2H])(N)C(=O)O [2-13C-d2-Glycine, reference compound]
- Glass formation upon rapid freezing in liquid nitrogen [1, 5]: forms a glass
- High field liquid state T1 [2]: 46 s

SMILES: O=C(O)CCC(=O)O [Succinic acid, reference compound]
- Glass formation upon rapid freezing in liquid nitrogen [1, 6]: formed a glass

SMILES: NC(=O)CC[C@H](N)C(=O)O [L-Glutamine, reference compound]
- Glass formation upon rapid freezing in liquid nitrogen [1, 5]: formed a glass
- Amount of degradation in the DNP preparation ([3]; 4 M): 14%

SMILES: CC(=O)CC(=O)O [acetoacetate]
- Degradation (decarboxylation) of acetoacetate formed ([3]; after esterase hydrolysis of ethyl acetoacetate, pH 7.3): No degradation
- Degradation (decarboxylation) of acetoacetate formed ([3]; after hydrolysis of precursor with NaOH, pH 12.8-13): No substantial degradation
- T1 of the C1 position in the hydrolyzed product ([2]; 14.1 T and 37° C.): 32 s
- T1 of the hydrolyzed product ([2]; 14.1 T and 37° C.): 32 s

SMILES: O=C(O)CC1=CC(=O)OC1=O [Cis-aconitic anhydride, cis-Aconitic anhydride]
- Glass formation upon rapid freezing [1, 7]: formed a glass
- Precursor hydrolyzed [4, 8]: at least 95%
- Presence of trans-aconitate ([3]; after DNP and hydrolysis with NaOH, pH 12.8): neglectable

SMILES: C=C1CC(=O)O1 [diketene, 4-Methylideneoxetan-2-one]
- Glass formation upon rapid freezing in liquid nitrogen [1, 6]: formed a glass
- Precursor hydrolyzed [4, 8]: at least 95%

SMILES: CCOC(=O)C(O)CC(=O)O (stereo not drawn) [Malic-(1)-ethyl ester]
- Glass formation upon rapid freezing [1, 7]: formed a glass
- Precursor hydrolyzed [4, 9]: at least 95%

SMILES: N[C@@H](Cc1ccccc1)C(=O)O [L-Phenylalanine, reference compound]
- Glass formation upon rapid freezing in liquid nitrogen [1, 5]: formed a glass

SMILES: CCOC(=O)CCC(=O)O [Succinic-(1)-ethyl ester]
- Glass formation upon rapid freezing [1, 7]: formed a glass
- Precursor hydrolyzed [4, 9]: at least 95%

SMILES: CCOC(=O)C(=O)CCC(=O)O [2-oxoglutaric-(1)-ethyl ester]
- Glass formation upon rapid freezing [1, 7]: formed a glass
- Precursor hydrolyzed [4, 10]: at least 95%

SMILES: O=C(O)CCC(=O)O [succinate]
- T1 of the hydrolyzed product ([2]; 14.1 T and 37° C.): 33 s

SMILES: CCCC(=O)OC(C)=O [Butyric acetic anhydride]
- Glass formation upon rapid freezing [1, 7]: formed a glass
- Precursor hydrolyzed [4, 8]: at least 95%

SMILES: CC(=O)CC(=O)[O-].[Li+] [Li-acetoacetate, reference compound]
- Glass formation upon rapid freezing in liquid nitrogen [1, 6]: formed a glass
- Amount of degradation (decarboxylation) ([3]; 1H NMR on DNP sample following dissolution in phosphate buffer pH 7.3): 40%

SMILES: CCCC(=O)O [Butyric acid, reference compound]
- Glass formation upon rapid freezing in liquid nitrogen ([1]; mixed with glycerol solution of Radical 1): formed a glass
- Glass formation upon rapid freezing [1, 7]: crystallizes

SMILES: CCOC(=O)C1CSC(=O)N1 (stereo not drawn) [Ethyl OTZ, 2-Oxothiazolidine-4-carboxylic ethyl ester]
- Precursor hydrolyzed ([4]; in less than 10 s, water with added NaOH, pH 11-12.6): at least 95%

SMILES: O=C(O)/C=C(/CC(=O)O)C(=O)O [cis-aconitate]
- T1 of the hydrolyzed product ([2]; 14.1 T and 37° C.): 24 s

SMILES: [2H][13C]([2H])(NC(C)=O)C(=O)O [2-13C-d2-N-acetyl glycine]
- Glass formation upon rapid freezing in liquid nitrogen [1, 5]: formed a glass
- High field liquid state T1 [2]: 40 s

SMILES: CCCC(=O)OC(=O)OCC [Butyric ethylcarbonic anhydride]
- Glass formation upon rapid freezing ([1]; absence of a glass forming additive, Example 1d (Prophetic)): forms a glass

SMILES: O=C(O)/C=C(/CC(=O)O)C(=O)O [Cis-aconitic acid, reference compound]
- Glass formation upon rapid freezing in liquid nitrogen [1, 6]: formed a glass
- Amount of trans isomer of aconitate ([3]; after DNP and dissolution in phosphate buffer with NaOH, pH 7.2): about 10%

SMILES: CCCC(=O)OC(=O)CCC [Butyric anhydride]
- Glass formation upon rapid freezing [1, 7]: formed a glass
- Precursor hydrolyzed [4, 8]: at least 95%

SMILES: CCOC(=O)C(N)Cc1ccccc1 (stereo not drawn) [Ethyl phenylalanine]
- Glass formation upon rapid freezing [1, 7]: formed a glass
- Precursor hydrolyzed [4, 10]: at least 95%

SMILES: O=C1CCC(=O)O1 [Succinic anhydride]
- Glass formation upon rapid freezing in liquid nitrogen [1, 6]: formed a glass
- Precursor hydrolyzed [4, 8]: at least 95%

SMILES: O=C(O)CC(O)C(=O)O (stereo not drawn) [Malic acid, reference compound]
- Glass formation upon rapid freezing in liquid nitrogen [1, 6]: formed a glass

Source: US9694090B2, “Process for preparing hyperpolarized substrates and method for MRI” (priority 2010, dated 2017)
